In US10717746B2, “Chemical compounds” (ASTRAZENECA AB, priority 2015, dated 2020):

Assays:
MV411 cells = assay: MV411 caspase activity assay (Caspase-Glo 3/7); type: cell-based; conditions: Homo sapiens, MV4-11, 6 h, 6-hr treatment, caspase 3/7 induction
Procedure, shortened: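 MV411 AML cells (3000/well) were plated overnight, then treated with compound for 6 h at 37 °C. Caspase-3/7 activity was read as luminescence after 30 min with Caspase-Glo 3/7 reagent at room temperature.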

CDK9/CycT1 [1] = biological target: T1, CDK9/CycT1 (Homo sapiens (Human), UniProt P50750); assay: CDK9 kinase assay, ATP concentration at Km (mobility shift, Caliper LC3000); type: biochemical; conditions: 6 μM ATP, 3 nM CDK9/CycT1; read-out: CDK9 ATP conc. at Km (IC50)
Procedure, shortened: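 3 nM CDK9/CycT1 with 6 µM ATP and 1.5 µM FITC-peptide (HEPES pH 7.2) was preincubated with compound 15 min at 25 °C. Reaction started with 10 mM MgCl2 and ran 90 min at 25 °C. Turnover was measured by mobility-shift separation of phosphorylated and unphosphorylated peptide.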

[2] = test system: phosphorylation of RNA Polymerase II (RNAPII) at the Ser2 site in MCF7 cells; assay: MCF7 pSer2 RNAPII MOA assay (immunofluorescence); type: cell-based; conditions: Homo sapiens, MCF7, 6 h, 6-hr treatment, read-out: p-Ser 2 RNAPII (IC50)
Procedure, shortened: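 MCF7 cells (2500/well), plated overnight, were treated for 6 h at 37° C. with CDK9 inhibitors in a 7-point dose response from 3 μM to 0.004 μM. Cells were then fixed, permeabilized and immunostained for Ser2-phospho RNAPII with Alexa Fluor 488 secondary plus DAPI. Per-well phosphorylation was read by microplate cytometry.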

CDK9/CycT1 [3] = biological target: T1, CDK9/CycT1; assay: CDK9 kinase assay, high ATP concentration (5 mM ATP); type: biochemical; conditions: 1.5 nM CDK9, read-out: CDK9 High ATP conc. (IC50)
Procedure, shortened: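 Caliper mobility-shift read-out of phosphorylated vs unphosphorylated FITC-peptide (1.5 μM), giving percent turnover. Final 1.5 nM CDK9/CycT1 and 5 mM ATP in 50 mM HEPES pH 7.2, 1 mM DTT, 10 mM MgCl2; compound preincubated 15 min, reaction 90 min at 25° C, stopped with EDTA.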

T1 sequence (P50750 whole entry): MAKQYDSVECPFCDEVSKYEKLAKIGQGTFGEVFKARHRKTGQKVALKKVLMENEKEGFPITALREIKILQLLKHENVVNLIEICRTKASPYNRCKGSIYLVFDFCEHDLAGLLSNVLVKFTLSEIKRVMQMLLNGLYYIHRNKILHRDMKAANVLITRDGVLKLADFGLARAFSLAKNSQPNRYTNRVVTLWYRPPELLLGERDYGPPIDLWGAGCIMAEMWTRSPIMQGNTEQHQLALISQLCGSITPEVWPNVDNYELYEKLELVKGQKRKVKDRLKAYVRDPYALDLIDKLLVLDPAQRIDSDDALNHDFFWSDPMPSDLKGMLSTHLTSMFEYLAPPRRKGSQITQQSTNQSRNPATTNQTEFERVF
T1 sequence (O60563 whole entry partner): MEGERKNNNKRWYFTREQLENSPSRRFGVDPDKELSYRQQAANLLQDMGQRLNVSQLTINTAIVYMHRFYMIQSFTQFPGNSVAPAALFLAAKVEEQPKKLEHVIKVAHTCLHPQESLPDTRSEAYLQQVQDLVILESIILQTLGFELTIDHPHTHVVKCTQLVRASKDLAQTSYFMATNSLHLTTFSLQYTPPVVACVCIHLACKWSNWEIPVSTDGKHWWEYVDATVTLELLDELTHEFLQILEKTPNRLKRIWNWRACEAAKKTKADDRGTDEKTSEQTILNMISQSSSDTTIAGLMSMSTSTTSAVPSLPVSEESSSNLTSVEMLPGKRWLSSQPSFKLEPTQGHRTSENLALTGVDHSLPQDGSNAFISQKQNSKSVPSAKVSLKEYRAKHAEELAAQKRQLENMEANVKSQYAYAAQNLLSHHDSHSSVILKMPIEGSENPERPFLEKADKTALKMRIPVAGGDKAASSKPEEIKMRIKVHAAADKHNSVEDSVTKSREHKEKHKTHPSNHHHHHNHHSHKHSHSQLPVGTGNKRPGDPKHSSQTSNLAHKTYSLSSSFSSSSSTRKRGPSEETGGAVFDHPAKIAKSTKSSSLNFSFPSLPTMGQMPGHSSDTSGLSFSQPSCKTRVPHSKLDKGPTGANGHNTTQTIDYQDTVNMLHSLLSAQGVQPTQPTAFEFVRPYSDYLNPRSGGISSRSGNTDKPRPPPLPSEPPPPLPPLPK

IC50 (MV411 cells) | IC50 (CDK9/CycT1 [1]) | IC50 [2] | IC50 (CDK9/CycT1 [3]) | Compound
896 nM | 8 nM | 665 nM | 554 nM | CC(=O)N[C@H]1CCC[C@@H](C(=O)Nc2cc(-c3cnn4c3CC(C)(C)C4)c(F)cn2)C1 [Example 81, (1R,3S)-3-acetamido-N-(4-(5,5-dimethyl-5,6-dihydro-4H-pyrrolo[1,2-b]pyrazol-3-yl)-5-fluoropyridin-2-yl)cyclohexanecarboxamide]
124 nM | < 4 nM | 174 nM | 22 nM | CC(=O)N[C@@H]1CCC[C@H](C(=O)Nc2cc(-c3cnn4c3CC(C)(C)C4O)c(Cl)cn2)C1 (stereo partly drawn) [Example 82, (1S,3R)-3-acetamido-N-(5-chloro-4-(6-hydroxy-5,5-dimethyl-5,6-dihydro-4H-pyrrolo[1,2-b]pyrazol-3-yl)pyridin-2-yl)cyclohexane-1-carboxamide]
2260 nM | 4 nM | > 2340 nM | 139 nM | CC(=O)N[C@@H]1CCC[C@H](C(=O)Nc2cc(-c3cn[nH]c3CC(C)(C)CO)c(Cl)cn2)C1 [Example 82a, (1S,3R)-3-acetamido-N-(5-chloro-4-(5-(3-hydroxy-2,2-dimethylpropyl)-1H-pyrazol-4-yl)pyridin-2-yl)cyclohexane-1-carboxamide]
